Literature values, collected in patent US12564552B2, “Oral product with a basic amine and an ion pairing agent” (NICOVENTURES TRADING LIMITED, priority 2021, dated 2026).

What was measured:
[1] = tested on: human buccal tissue; details: nicotine solution pH=6 vs pH 8.1, perfusion cell, Adrian et al.
[2] = not given; remark: listed apart in the source

| solubility in water | solubility in fats and alcohols | chemical stability (isolated, isomerizes to trans-bixin (β-bixin)) | SMILES | factor by which diffusion rate is reduced at pH 6 relative to pH 8.1 [1] | log Ka1 (pyridine ring nitrogen) ([2]; pyridine ring nitrogen) | log Ka2 (pyrrolidine ring nitrogen) ([2]; pyrrolidine ring nitrogen) |
| --- | --- | --- | --- | --- | --- | --- |
| water-soluble |  |  | CC(/C=C/C=C(C)/C=C/C(=O)O)=C\C=C\C=C(C)\C=C\C=C(C)\C=C\C(=O)O (stereo in doubt) [norbixin, (2E,4E,6E,8E,10E,12E,14E,16E,18E)-4,8,13,17-tetramethylicosa-2,4,6,8,10,12,14,16,18-nonaenedioic acid] |  |  |  |
| insoluble in water | soluble in fats and alcohols | chemically unstable when isolated | COC(=O)/C=C/C(C)=C\C=C\C(C)=C\C=C\C=C(C)\C=C\C=C(C)\C=C\C(=O)O [bixin, (2E,4E,6E,8E,10E,12E,14E,16Z,18E)-20-methoxy-4,8,13,17-tetramethyl-20-oxoicosa-2,4,6,8,10,12,14,16,18-nonaenoic acid] |  |  |  |
|  |  |  | CN1CCCC1c1cccnc1 (stereo not shown) [nicotine] | ~7 | 3.41 | 8.02 |
